Key:
PDK1_50-359 = target: T1, PDK1_50-359 (Homo sapiens, UniProt O15530); test: Differential scanning fluorimetry, thermal stability of PDK1_50-359 (catalytic domain); assay type: binding
T1 construct: His (N); made in house; host or cells: insect cells (stated for the crystallography batch)
T1 sequence (O15530 50-359): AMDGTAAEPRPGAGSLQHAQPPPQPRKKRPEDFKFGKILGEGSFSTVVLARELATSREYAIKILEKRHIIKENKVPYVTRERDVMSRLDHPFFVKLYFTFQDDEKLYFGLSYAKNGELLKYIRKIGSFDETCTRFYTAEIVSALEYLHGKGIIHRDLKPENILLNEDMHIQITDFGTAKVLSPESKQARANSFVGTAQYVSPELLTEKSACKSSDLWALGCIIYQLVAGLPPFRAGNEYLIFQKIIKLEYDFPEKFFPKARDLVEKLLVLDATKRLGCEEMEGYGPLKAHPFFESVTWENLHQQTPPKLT
Procedure: The thermal stability of PDK1 was assessed by monitoring the unfolding of PDK1 by the increase in the fluorescence of SYPRO Orange (Invitrogen) using a real-time PCR device (StepOnePlus, Applied Biosystems and BioRad CFX96) following a previously described protocol ([70]). The reactions were performed in a final volume of 10 μl in white 96-well PCR microtiter plates (Greiner) and contained 1 μM PDK1, 10 mM HEPES (pH 7.5), 150 mM NaCl, 1/1000 SYPRO Orange and 1 mM dithiothreitol. For valsartan, the assay buffer was modified to exclude NaCl. PIFtide or compounds (at a final DMSO concentration of 1%) were added to this reaction mixture. The temperature gradient was performed in steps of 0.3 °C in the range from 25 to 70 °C. To calculate the Tm values, data were exported to GraphPad Prism and curves fitted to a Boltzmann sigmoidal equation with an acceptable confidence interval of 95%. Statistical analysis was performed with Infostat software (http://www.infostat.com.ar) and GraphPad Prism by first verifying a normal distribution of pooled residuals (Shapiro-Wilks test) and homogeneity of variance (F test), and then performing a one-way ANOVA followed by the post hoc comparisons test indicated in each figure legend.

GST-PDK1_360-556 = target: T2, GST-PDK1_360-556 (Homo sapiens, UniProt O15530); test: AlphaScreen biotin-PIP3 / GST-PDK1_360-556 (linker-PH domain) displacement; assay type: binding; conditions: relative to 5 nM on GST-PDK1_1-556
T2 construct: GST-PDK1_360-556 (GST-PDK1-Linker-PH) was cloned into the BamHI-KpnI sites in pEBG2T plasmid; made in house; host or cells: HEK293 cells (transient transfection of pEBG2T)
T2 sequence (O15530 360-556): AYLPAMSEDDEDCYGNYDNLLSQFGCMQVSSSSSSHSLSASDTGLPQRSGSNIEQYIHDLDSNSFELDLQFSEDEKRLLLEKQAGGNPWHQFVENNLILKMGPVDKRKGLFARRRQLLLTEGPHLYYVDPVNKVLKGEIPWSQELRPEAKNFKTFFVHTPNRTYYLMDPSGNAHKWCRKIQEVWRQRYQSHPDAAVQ
Procedure: The AlphaScreen® assay was performed following the general guidelines from the manufacturer (Perkin Elmer) ([29]). In short, the assay was performed in a final volume of 25 μl in white 384-well microtiter plates (Greiner) in a standard buffer containing 50 mM Tris-HCl (pH 7.4), 100 mM NaCl, 2 mM DTT, 0.01% (v/v) Tween-20 and 0.1% (w/v) BSA, with the addition of 5 μl of beads (anti-GST coated acceptor beads and streptavidin-coated donor beads; nickel chelate-coated acceptor beads and streptavidin-coated donor beads; or nickel chelate-coated acceptor beads and GSH-coated donor beads, 20 μg/ml final concentrations for each bead type). […]
The conditions for each AlphaScreen assay were identified in cross-titration experiments for each interaction to choose the ideal pair of concentrations within the linear range of the interactions. […] His-PDK1 and GST-fusion protein in the presence or absence of the different compounds were incubated in the dark for 60 min at room temperature and the emission of light from the acceptor beads was measured in an EnVision reader (Perkin Elmer) or Spark plate reader (Tecan). […]
Biotin-PIP3 interactions with GST-PDK1_1-556 or GST-PDK1_360-556 were assessed in the standard buffer. […]

SMILES | effect on thermal stability of PDK1_50-359 (catalytic domain) (PDK1_50-359) | fold higher concentration needed for similar displacement of PIP3 from GST-linker-PH domain than from GST-PDK1_1-556 (GST-PDK1_360-556)
O=C(O[C@H]1[C@@H](OP(=O)(O)O)[C@H](OP(=O)(O)O)[C@@H](OP(=O)(O)O)[C@H](OP(=O)(O)O)[C@H]1OP(=O)(O)O)c1ccccc1 [HYG8, 2-O-benzoyl-IP5] | without affecting | –
CCCCO[C@H]1[C@@H](OP(=O)(O)O)[C@H](OP(=O)(O)O)[C@@H](OP(=O)(O)O)[C@H](OP(=O)(O)O)[C@H]1OP(=O)(O)O [HYG14, 2-O-butyl-IP5] | – | more than 1000 fold

Reference: PMC7614687, “Modulation of the substrate specificity of the kinase PDK1 by distinct conformations of the full-length protein*” (Science signaling, 2023)
